Experimental data taken from patent US10239880B2, “Cyclopenta[d]pyrimidines and substituted cyclopenta[d]pyrimidines as antitubulin and microtubule targeting agents, monocyclic pyrimidines as tubulin inhibitors, and pyrrolopyrimidines as targeted antifolates and tubulin and multiple receptor tyrosine kinase inhibition and antitumor agents” (Duquesne University of the Holy Spirit, priority 2015, dated 2019).
Structures can show the parent of a compound that is named as a salt. Where two headings read alike, the source gives them in different places. Each block holds one molecule with its values, some of them ahead of it.

How the values were obtained:
[1] = system: Parental SK-OV-3; experiment: Antiproliferative activity, parental SK-OV-3; assay type: cell-based; settings: Homo sapiens, Table 6, read-out: IC50 ± SD Parental SK-OV-3
[2] = system: β-III overexpressing HeLa; experiment: Antiproliferative activity, β-III overexpressing HeLa; assay type: cell-based; settings: for IC50: Homo sapiens, HeLa, Table 7, read-out: IC50 ± SD β-III overexpressing HeLa
Excerpt: (§1) Another clinically relevant drug resistance mechanism of tubulin-targeting agents is the overexpression of the βIII isotype of tubulin.

[3] = system: Pgp expressing SK-OV-3 MDR1-6-6; experiment: Antiproliferative activity, Pgp expressing SK-OV-3 MDR1-6-6; assay type: cell-based; settings: Homo sapiens, SK-OV-3; Table 6; read-out: IC50 ± SD Pgp expressing SK-OV-3 MDR1-6-6
[4] = system: Parental HeLa; experiment: Antiproliferative activity, parental HeLa; assay type: cell-based; settings: Homo sapiens, Table 7, read-out: IC50 ± SD Parental HeLa
Excerpt: as §1

[5] = system: CAM; experiment: CAM (gi50); settings: Table 3b; unit inferred
[6] = system: A431; experiment: A431 cytotoxicity; settings: Homo sapiens, A-431, read-out: A431 cytotoxicity, Table 3b; unit inferred
[7] = system: A-10 cells; experiment: Microtubule depolymerization, cell-based phenotypic assay in A-10 cells
[8] = molecular target: EGFR (Homo sapiens, UniProt P00533); experiment: Kinase inhibition, whole-cell assay, EGFR; assay type: cell-based; settings: Table 3b; unit inferred; read-out: EGFR kinase inhibition
Chain of EGFR (P00533 25-1210, species assumed): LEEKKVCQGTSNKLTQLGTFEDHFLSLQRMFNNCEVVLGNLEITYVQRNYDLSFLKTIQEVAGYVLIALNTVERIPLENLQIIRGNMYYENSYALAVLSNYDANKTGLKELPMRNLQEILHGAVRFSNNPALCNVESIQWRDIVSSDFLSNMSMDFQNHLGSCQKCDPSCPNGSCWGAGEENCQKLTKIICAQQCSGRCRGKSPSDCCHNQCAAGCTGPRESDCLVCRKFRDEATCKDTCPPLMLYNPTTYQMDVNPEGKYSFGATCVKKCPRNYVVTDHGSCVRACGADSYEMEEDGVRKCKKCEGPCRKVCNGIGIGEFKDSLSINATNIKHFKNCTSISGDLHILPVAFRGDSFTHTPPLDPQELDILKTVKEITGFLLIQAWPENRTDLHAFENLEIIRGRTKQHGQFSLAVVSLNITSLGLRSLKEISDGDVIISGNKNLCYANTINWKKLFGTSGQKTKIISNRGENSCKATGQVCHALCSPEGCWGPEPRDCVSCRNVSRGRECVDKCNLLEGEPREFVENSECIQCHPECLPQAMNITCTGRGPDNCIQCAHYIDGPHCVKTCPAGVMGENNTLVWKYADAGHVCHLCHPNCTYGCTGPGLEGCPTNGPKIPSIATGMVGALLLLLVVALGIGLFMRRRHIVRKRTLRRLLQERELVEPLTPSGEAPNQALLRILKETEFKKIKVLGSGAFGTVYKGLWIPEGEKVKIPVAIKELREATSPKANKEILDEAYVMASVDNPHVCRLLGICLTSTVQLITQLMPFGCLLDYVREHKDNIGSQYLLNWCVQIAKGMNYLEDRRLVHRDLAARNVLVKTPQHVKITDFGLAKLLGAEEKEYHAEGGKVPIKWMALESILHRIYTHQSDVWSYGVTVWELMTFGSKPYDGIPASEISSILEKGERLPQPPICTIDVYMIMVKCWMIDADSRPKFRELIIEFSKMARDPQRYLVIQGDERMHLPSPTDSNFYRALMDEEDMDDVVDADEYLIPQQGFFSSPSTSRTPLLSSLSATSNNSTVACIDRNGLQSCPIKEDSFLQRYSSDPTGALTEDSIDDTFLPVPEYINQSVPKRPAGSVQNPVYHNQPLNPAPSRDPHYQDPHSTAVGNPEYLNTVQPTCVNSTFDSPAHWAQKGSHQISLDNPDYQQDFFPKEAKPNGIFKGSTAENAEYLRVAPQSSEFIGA

[9] = system: MDA-MB-435 cancer cells; experiment: Antiproliferative effect in MDA-MB-435 cancer cells (SRB assay); assay type: cell-based
[10] = molecular target: PDGFR-β (Homo sapiens, UniProt P09619); experiment: Kinase inhibition, whole-cell assay, PDGFR-β; assay type: cell-based; settings: Table 3b; unit inferred; read-out: PDGFR kinase inhibition
Chain of PDGFR-β (P09619 33-1106, species assumed): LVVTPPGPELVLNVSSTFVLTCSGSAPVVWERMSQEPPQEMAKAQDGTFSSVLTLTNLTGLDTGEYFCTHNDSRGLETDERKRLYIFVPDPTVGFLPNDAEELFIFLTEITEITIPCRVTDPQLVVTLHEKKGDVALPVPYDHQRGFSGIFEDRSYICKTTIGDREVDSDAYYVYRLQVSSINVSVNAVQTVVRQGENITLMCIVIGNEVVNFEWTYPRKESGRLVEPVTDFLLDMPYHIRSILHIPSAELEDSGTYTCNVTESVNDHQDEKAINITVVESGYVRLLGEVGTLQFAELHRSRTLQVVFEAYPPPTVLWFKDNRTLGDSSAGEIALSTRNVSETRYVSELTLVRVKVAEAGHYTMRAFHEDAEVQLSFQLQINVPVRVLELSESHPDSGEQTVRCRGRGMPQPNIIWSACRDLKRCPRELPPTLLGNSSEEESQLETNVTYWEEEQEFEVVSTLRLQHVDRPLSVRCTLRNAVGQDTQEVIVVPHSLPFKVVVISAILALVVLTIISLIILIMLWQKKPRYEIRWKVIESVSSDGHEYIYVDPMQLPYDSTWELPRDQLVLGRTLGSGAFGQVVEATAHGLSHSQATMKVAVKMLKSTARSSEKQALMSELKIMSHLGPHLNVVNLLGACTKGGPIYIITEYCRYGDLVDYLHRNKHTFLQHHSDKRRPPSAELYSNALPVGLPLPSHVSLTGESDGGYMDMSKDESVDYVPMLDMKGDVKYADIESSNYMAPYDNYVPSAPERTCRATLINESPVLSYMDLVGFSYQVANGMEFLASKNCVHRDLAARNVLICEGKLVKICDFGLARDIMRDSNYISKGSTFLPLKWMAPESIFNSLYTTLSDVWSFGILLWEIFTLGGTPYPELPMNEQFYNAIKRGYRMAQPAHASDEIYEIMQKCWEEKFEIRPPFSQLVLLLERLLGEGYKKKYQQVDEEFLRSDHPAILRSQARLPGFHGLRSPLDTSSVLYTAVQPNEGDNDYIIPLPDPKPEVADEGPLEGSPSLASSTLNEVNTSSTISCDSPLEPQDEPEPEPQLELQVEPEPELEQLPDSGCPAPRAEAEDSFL

[11] = system: U251; experiment: U251 cytotoxicity; assay type: cell-based; settings: Homo sapiens, U-251; Table 3b; unit inferred
[12] = molecular target: VEGFR2 (Homo sapiens, UniProt P35968); experiment: Kinase inhibition, whole-cell assay, VEGFR2 (Flk-1); assay type: cell-based; settings: Table 3b; unit inferred
Chain of VEGFR2 (P35968 20-1356, species assumed): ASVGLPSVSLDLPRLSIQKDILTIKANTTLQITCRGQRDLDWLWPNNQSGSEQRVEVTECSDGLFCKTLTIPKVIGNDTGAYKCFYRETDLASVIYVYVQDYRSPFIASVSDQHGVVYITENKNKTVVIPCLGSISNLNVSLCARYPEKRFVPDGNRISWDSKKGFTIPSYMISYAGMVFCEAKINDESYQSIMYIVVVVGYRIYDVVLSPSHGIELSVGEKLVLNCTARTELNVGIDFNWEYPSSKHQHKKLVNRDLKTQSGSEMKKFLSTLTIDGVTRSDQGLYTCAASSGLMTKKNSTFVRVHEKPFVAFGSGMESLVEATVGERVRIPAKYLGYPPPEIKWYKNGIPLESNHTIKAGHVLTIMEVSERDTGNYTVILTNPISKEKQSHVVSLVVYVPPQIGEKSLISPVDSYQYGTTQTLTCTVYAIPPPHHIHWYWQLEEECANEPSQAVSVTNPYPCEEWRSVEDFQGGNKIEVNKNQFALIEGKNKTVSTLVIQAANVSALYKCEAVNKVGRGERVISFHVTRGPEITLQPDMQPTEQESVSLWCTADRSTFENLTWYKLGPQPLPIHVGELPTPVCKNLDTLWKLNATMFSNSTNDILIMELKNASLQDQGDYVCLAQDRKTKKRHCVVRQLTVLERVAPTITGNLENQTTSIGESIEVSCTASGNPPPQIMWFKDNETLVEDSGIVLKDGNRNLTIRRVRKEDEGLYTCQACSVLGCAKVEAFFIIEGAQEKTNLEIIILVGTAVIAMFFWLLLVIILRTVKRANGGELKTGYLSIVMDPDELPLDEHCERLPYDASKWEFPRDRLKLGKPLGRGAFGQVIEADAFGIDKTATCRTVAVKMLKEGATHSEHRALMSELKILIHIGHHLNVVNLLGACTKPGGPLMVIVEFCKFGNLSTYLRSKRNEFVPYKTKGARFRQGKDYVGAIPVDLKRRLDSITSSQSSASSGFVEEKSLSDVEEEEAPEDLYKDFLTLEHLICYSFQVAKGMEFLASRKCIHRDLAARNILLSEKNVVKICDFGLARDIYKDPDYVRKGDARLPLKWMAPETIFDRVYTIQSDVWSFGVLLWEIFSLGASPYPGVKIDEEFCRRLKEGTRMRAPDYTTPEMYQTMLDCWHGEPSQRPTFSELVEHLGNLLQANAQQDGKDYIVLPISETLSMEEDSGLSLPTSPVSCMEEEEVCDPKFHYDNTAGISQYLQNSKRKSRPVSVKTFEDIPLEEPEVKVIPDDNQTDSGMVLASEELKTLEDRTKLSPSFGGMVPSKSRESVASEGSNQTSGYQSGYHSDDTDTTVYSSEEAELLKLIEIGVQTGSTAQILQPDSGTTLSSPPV

[13] = system: KB (RFC/FRα/PCFT); experiment: Growth inhibition of KB tumor cells; assay type: cell-based, human
Protocol: Cell proliferation was assayed with CellTiter-Blue™ with a fluorescent plate reader.

[14] = system: RT16 (FRα); experiment: Proliferation inhibition, FRα-expressing RT16 cells; assay type: cell-based, Chinese hamster
Excerpt: (§2) AGF215, AGF234 and AGF263 were compared to AGF23 as inhibitors of proliferation of engineered Chinese hamster ovary (CHO) cells expressing human PCFT (R2/PCFT4), FRα (RT16), or RFC (PC43-10).

[15] = system: D4 (FRβ); experiment: Proliferation inhibition, FRβ-expressing D4 cells; assay type: cell-based
[16] = system: PC43-10 (RFC); experiment: Proliferation inhibition, RFC-expressing PC43-10 cells; assay type: cell-based, Chinese hamster; settings: Table 11
Excerpt: as §2

[17] = Rattus norvegicus, A10, read-out: EC50 in A-10 cells (Concentration that causes 50% tubulin loss in A-10 cells), Table 4, Section II compounds
[18] = Rattus norvegicus, A10, Table 3a, unit inferred, read-out: EC50 for Microtubule Depolymerization in A · 10 Cells
[19] = Homo sapiens, Table 3a, unit inferred, read-out: IC50 ± SD in MDA-435 Cells
[20] = Table 11, read-out: IC50 FRα RT16
[21] = with folic acid (+FA), read-out: IC50 FRα RT16 (+FA)

SMILES: COc1ccc(N(C)c2nc(C)nc3c2CCC3)cc1C [Compound 7]
IC50 [1]: 23.9 ± 2.5 nM
IC50 [2]: 18.8 ± 1.6 nM
IC50 [3]: 47.5 ± 2.4 nM
IC50 [4]: 23 ± 1 nM

SMILES: CSc1ccc(N(C)c2nc(C)nc3ccn(C)c23)cc1 [Table 3a 26]
GI50 [5]: 363 ± 56.9 nM
IC50 [6]: 18.8 ± 4.1 nM
EC50 ([7]; Rattus norvegicus, A10, Table 3a, lines that print nM, read-out: EC50 for Microtubule Depolymerization in A · 10 Cells): 23 nM
IC50 [8]: 54.8 ± 9.2 nM
IC50 ([9]; Homo sapiens, Table 3a, cells that print nM, read-out: IC50 ± SD in MDA-435 Cells): 6.2 nM
IC50 [10]: 450 ± 53.1 nM
IC50 [11]: 35.1 ± 6.3 nM
IC50 [12]: 544 ± 77.2 nM

SMILES: COc1ccc(CN(C)c2nc(C)nc3c2CCC3)cc1 [Section II compound 12]
EC50 [7, 17]: 11300 nM

SMILES: Cc1nc2c(c(N(C)c3ccc4c(c3)CCO4)n1)CCC2 [Compound 6]
IC50 [1]: 18.7 ± 1.2 nM
IC50 [2]: 15 ± 1 nM
IC50 [3]: 29.8 ± 5.6 nM
IC50 [4]: 16 ± 1 nM

SMILES: COc1ccc(N(C)c2nc(C)nc3c2CCC3)cc1 [Compound 1]
EC50 [7, 17]: 25.9 nM
IC50 ([9]; Homo sapiens, MDA-MB-435, Table 4, Section II compounds, SRB assay, read-out: IC50 ± SD (MDA-MB-435) Cancer cells): 7 ± 0.7 nM
IC50 [1]: 11.3 ± 0.2 nM
IC50 [2]: 9.6 ± 0.9 nM
IC50 [3]: 16.4 ± 0.4 nM
IC50 [4]: 12 ± 1.2 nM

SMILES: COc1ccc(N(C)c2nc(Cl)nc3ccn(C)c23)cc1 [Table 3a 19]
GI50 [5]: 9.3 ± 0.91 nM
IC50 [6]: 2.1 ± 0.3 nM
EC50 [7, 18]: 1.48 nM
IC50 [8]: 6.3 ± 0.9 nM
IC50 [9, 19]: 1.3 nM
IC50 [10]: 4.2 ± 0.9 nM
IC50 [11]: 3.1 ± 0.4 nM
IC50 [12]: 12.4 ± 1.2 nM

SMILES: Cc1nc2c(c(N(C)c3ccc(N(C)C)cc3)n1)CCC2 [Compound 9]
IC50 [1]: 13 ± 1 nM
IC50 [2]: 9.8 ± 0.9 nM
IC50 [3]: 22.6 ± 2.3 nM
IC50 [4]: 11 ± 1 nM

SMILES: CSc1ccc(N(C)c2nc(C)nc3cc[nH]c23)cc1 [4•HCl]
EC50 ([7]; Table 3, read-out: Microtubule depolymerization EC50): 1100 nM
IC50 ([9]; Table 3, read-out: MDA-MB-435 IC50): 49.9 ± 10.4 nM

SMILES: Nc1nc(N)c2nc(CNc3ccc(C(=O)N[C@@H](CCCNC(=O)c4ccccc4C(=O)O)C(=O)O)cc3)cnc2n1 [PT523]
IC50 [14, 20]: 409 nM
IC50 [14, 21]: > 1000 nM
IC50 [16]: 1.28 nM

SMILES: COc1ccc([C@H](C)N(C)c2nc(C)nc3c2CCC3)cc1 [Compound 10]
EC50 [7, 17]: > 10000 nM

Further lines, with some results ahead:

EC50 ([7]; Table 3a, unit inferred, read-out: EC50 for Microtubule Depolymerization in A · 10 Cells): 27.5 nM
IC50 ([9]; Table 3a, unit inferred, read-out: IC50 ± SD in MDA-435 Cells): 13.4 ± 0.5 nM
SMILES: COc1ccc(N(C)c2ncnc3ccn(C)c23)cc1 [Table 3a 17]

EC50 [7, 18]: 2.7 nM
IC50 [8]: 16.4 ± 2.6 nM
IC50 [9, 19]: 3.6 ± 0.3 nM
IC50 [10]: 10.8 ± 1.6 nM
IC50 [12]: 33.9 ± 3.9 nM
SMILES: CSc1ccc(N(C)c2nc(Cl)nc3ccn(C)c23)cc1 [Table 3a 27]
GI50 [5]: 45.2 ± 5.2 nM
IC50 [6]: 8.2 ± 1.3 nM
IC50 [11]: 11.3 ± 1.8 nM

IC50 ([13]; Table 11, read-out: IC50 RFC/FRα/PCFT KB): 0.74 nM
IC50 ([13]; with folic acid (+FA), read-out: IC50 RFC/FRα/PCFT KB (+FA)): 938 nM
SMILES: Nc1nc2[nH]c(CCCNc3ccc(C(=O)N[C@@H](CCC(=O)O)C(=O)O)cc3)cc2c(=O)[nH]1 [AGF234]
IC50 [14, 20]: 1.4 nM
IC50 [14, 21]: 136 nM
IC50 ([15]; Table 11, read-out: IC50 FRβ D4): 0.84 nM
IC50 ([15]; with folic acid (+FA), read-out: IC50 FRβ D4 (+FA)): 316 nM
IC50 [16]: 670 nM
IC50 RFC PC43-10 [16]: low level of activity

IC50 [2]: 19.1 ± 3.9 nM
IC50 [3]: 49.7 ± 7.9 nM
SMILES: CNc1ccc(N(C)c2nc(C)nc3c2CCC3)cc1 [Section II compound 8]
IC50 [1]: 36.3 ± 3.3 nM
Rr* ([2]; relative resistance, β-III overexpressing HeLa vs parental HeLa): 0.6
IC50 [4]: 31 ± 1.6 nM

EC50 [7, 17]: > 10000 nM
SMILES: CO[C@H]1CC[C@H](N(C)c2nc(C)nc3c2CCC3)CC1 [Compd 13]
